Several values for one entry are separate records, joined by “and”; a condition that tells them apart may be missing. Identical values can stand only once.
Assay: Blood-brain barrier penetration by the method of Oldendorf (radioactively marked active material, A. carotis injection, brain radioactivity after 15 seconds)
Conditions: for percentage proportion of active material which has passed the blood-brain barrier, with C5: with addition of glycerol 1-pentyl ether; for percentage proportion of active material which has passed the blood-brain barrier, with C5 / percentage proportion of active material which has passed the blood-brain barrier, with C3: about 0.3 Osmol/l; for percentage proportion of active material which has passed the blood-brain barrier, with C5 / percentage proportion of active material which has passed the blood-brain barrier, without / percentage proportion of active material which has passed the blood-brain barrier, with C3: A. carotis, 15 seconds, + dissolved in inger albumin; for percentage proportion of active material which has passed the blood-brain barrier, without: without addition of a compound of the general formula; for percentage proportion of active material which has passed the blood-brain barrier, with C3: with addition of glycerol 1-propyl ether
Procedure: The effectiveness of the medicament according to the invention was tested according to the method of Oldendorf (Brain-Res., 24, 372-376 (1970)). […] In the case of the medicament according to the invention, the administration took place into the A. carotis. 15 seconds later, the experimental animal was decapitated, the brain removed and the radioactivity bound therein determined. […] The numerical values give the percentage proportion of active material which has passed the blood-brain barrier. As comparative substance, there was employed an isotonic buffer solution. The compound of the general formula was present in iso-osmolar concentration, which corresponds to about 0.3 Osmol/ 1. in the solution administered.
In the case of the experiments according to the method of Oldendorf, the active materials were used in amounts of between 10 and 100 μmol. There was thereby obtained no dependency of the penetration percentage of the active material concentration, i.e. that with increasing amount of active material, the percentage passing the blood-brain barrier remained about the same. In the case of methotrexate as active material, the penetration was also investigated in the case of higher concentrations.
The penetration achieved also depends upon the amount of glycerol derivative of the general formula used. Referring to the results given in Table 1, e.g. with endoxan and the C3 additive, there was achieved a penetration of scarcely 20%, whereas with an equal amount of the C5 additive the penetration lay above 50%. However, if one increases the amount of the C3 derivative 2.5 fold, then the percentage penetrating also increases to about 50%.

| Compound | percentage proportion of active material which has passed the blood-brain barrier, with C3 | proportion of active material advancing to the place of action at higher concentrations (higher concentrations, up to above 10 mMole) | percentage proportion of active material which has passed the blood-brain barrier, with C5 | percentage proportion of active material which has passed the blood-brain barrier, without | percentage penetrating with increased amount of the C3 derivative (amount of the C3 derivative increased 2.5 fold) | penetration improvement (FIG. 2, M.W. above 600) | percentage proportion of active material passing the barrier at higher concentrations (up to above 10 mMole) |
| --- | --- | --- | --- | --- | --- | --- | --- |
| O=C1c2c(O)ccc(O)c2C(=O)c2c(NCCNCCO)ccc(NCCNCCO)c21 [mitoxandrone] | – | – | 25.1 ± 2.0% | 1.8 ± 0.1% | – | – | – |
| COc1cccc2c1C(=O)c1c(O)c3c(c(O)c1C2=O)C[C@@](O)(C(C)=O)C[C@@H]3O[C@H]1C[C@H](N)[C@H](O)[C@H](C)O1 [daunomycin] | 24.1 ± 3.3% | – | 76.8 ± 7.0% | 10.8 ± 2.7% | – | – | – |
| O=c1[nH]cc(F)c(=O)[nH]1 [5-fluorouracil] | – | – | 13.0 ± 0.1% | 3.7 ± 1.0% | – | – | – |
| O=P1(N(CCCl)CCCl)NCCCO1 (centres unmarked) [endoxan] | 18.9 ± 0.3% and ~20% | – | – | 11.4 ± 0.4% | about 50% | – | – |
| bleomycin | – | – | 5.7 ± 1.8% | 4.9 ± 1.4% | – | relatively small | – |

Further lines, with some results ahead:

| percentage proportion of active material which has passed the blood-brain barrier, with C3 | proportion of active material advancing to the place of action at higher concentrations (higher concentrations, up to above 10 mMole) | Compound | percentage proportion of active material which has passed the blood-brain barrier, with C5 | percentage proportion of active material which has passed the blood-brain barrier, without | percentage penetrating with increased amount of the C3 derivative (amount of the C3 derivative increased 2.5 fold) | penetration improvement (FIG. 2, M.W. above 600) | percentage proportion of active material passing the barrier at higher concentrations (up to above 10 mMole) |
| --- | --- | --- | --- | --- | --- | --- | --- |
| 5.7 ± 1.0% | a linear increase | CN(Cc1cnc2nc(N)nc(N)c2n1)c1ccc(C(=O)N[C@@H](CCC(=O)O)C(=O)O)cc1 [methotrexate] | 26.2 ± 5.8% | 4.7 ± 0.6% | – | – | practically the same percentage proportion of active material passing the barrier |
| 16.4 ± 4.1% | – | CCCCCCCCCCCCCCCCCCOCC(COP(=O)([O-])OCC[N+](C)(C)C)OC (centres unmarked) [ET 18-O-CH3] | – | 4.5 ± 0.8% | – | – | – |
| 4.2 ± 0.6% | – | CC[C@]1(O)C[C@@H]2CN(CCc3c([nH]c4ccccc34)[C@@](C(=O)OC)(c3cc4c(cc3OC)N(C)[C@H]3[C@@](O)(C(=O)OC)[C@H](OC(C)=O)[C@]5(CC)C=CCN6CC[C@]43[C@@H]65)C2)C1 [vinblastine] | 44.3 ± 6.7% | 5.4 ± 1.7% | – | – | – |
